Values after ≈ are worked out from the molar mass of the structure shown.
Experiments:
[1] = molecular target: T1, PBP3 from Escherichia coli (K-12) (Escherichia coli, UniProt P0AD68); assay: Bocillin-FL fluorescence polarization competition binding, E. coli PBP3
T1 construct: made in house
Text: (§1) To determine the ability of boronic acid-based test PBP inhibitors to bind Penicillin Binding Proteins (PBPs), Bocillin-FL (fluorescently-labeled penicillin V; ThermoFisher Scientific) was used in a fluorescence polarization (FP) competition binding assay to assess inhibitor binding to PBP3 from Escherichia coli (K-12), PBP3 from Pseudomonas aeruginosa (PAO1), PBP1a and PBP3 from Acinetobacter baumannii (ATCC 19606), and PBP2 from Neisseria gonorrhoeae (FA19). PBPs were cloned and purified as described previously (E. coli PBP3, King, D. T, et al., ACS Infectious Diseases 2015, 1, 175-184; P. aeruginosa PBP3, Han et. al., PNAS 2010, 107 (51), 22002-22007; A. baumannii PBPs, Penwell et. al., Antimicrob. Agents Chemother. 2015, 59 (3), 1680-1689; N. gonorrhoeae PBP2, Singh et. al., J. Biol. Chem. 2019, 294 (38), 14020-14032). To establish assay conditions for competition binding, enzyme titration/saturation binding experiments were initially performed. Bocillin-FL was prepared at 0.2 μM in a buffer comprised of 50 mM Hepes (pH 8.0), 300 mM NaCl and 10% (v/v) glycerol for reactions with E. coli, P. aeruginosa and N. gonorrhoeae PBPs, and 25 mM Tris (pH 8.0), 200 mM NaCl, 10% (v/v) glycerol and 0.005% (v/v) Tween 20 for reactions with A. baumannii PBPs. Saturation binding was performed by mixing 40 μl of PBP solutions ranging in concentrations from 0-24 μM with 40 μl of the 0.2 μM Bocillin-FL solution, in individual wells of a black 384-well microplate. FP was measured immediately upon mixing (Excitation, 490 nm; Emission, 520 nm; g-factor, 0.96), using a Cytation3 (BioTek) microplate reader and measured continuously for up to 120 minutes. The FP response stabilized after 15 minutes for P. aeruginosa and A. baumannii PBP3, 30 minutes for E. coli PBP3 and A. baumannii PBP1a, and less than 1 minute for N. gonorrhoeae PBP2. […] The competition binding assay (80 μl final volume) was validated using beta-lactams and PBPs at final concentrations of: 1.5 μM for E. coli PBP3; 0.75 μM for P. aeruginosa PBP3; 1 μM for A. baumannii PBP1a; 0.2 μM for A. baumannii PBP3; and 0.25 μM for N. gonorrhoeae PBP2. Bocillin-FL was at 0.1 μM (0.05 μM with A. baumannii PBP1a) and beta-lactam concentrations ranged from 0-1,000 μM. E. coli PBP3 was incubated with increasing concentrations of ampicillin in a black 384-well microplate (Corning) for 30 minutes. P. aeruginosa PBP3 was incubated for 15 minutes with aztreonam, whereas A. baumannii PBP1a and PBP3 were incubated for 15 minutes with meropenem, and then Bocillin-FL was added followed immediately by the FP measurement for up to 60 minutes. […] The beta-lactam potency was reported as the concentration of beta-lactam required to reduce the amount of PBP bound-Bocillin-FL by 50% (EC50). […] The EC50 of aztreonam was determined to be <0.5 μM for P. aeruginosa PBP3. […] Binding assays for boronic acid PBP inhibitors were performed in an identical fashion for the respective PBPs.

[2] = molecular target: T2, PBP3 from Pseudomonas aeruginosa (PAO1) (Pseudomonas aeruginosa, UniProt G3XD46); assay: Bocillin-FL fluorescence polarization competition binding, P. aeruginosa PBP3; settings: Binding affinity to P. aeruginosa PBP3; fluorescence polarization competition binding assay using Bocillin-FL; read-out: P. aeruginosa PBP3 Potency
T2 construct: made in house
T2 sequence (G3XD46 whole entry): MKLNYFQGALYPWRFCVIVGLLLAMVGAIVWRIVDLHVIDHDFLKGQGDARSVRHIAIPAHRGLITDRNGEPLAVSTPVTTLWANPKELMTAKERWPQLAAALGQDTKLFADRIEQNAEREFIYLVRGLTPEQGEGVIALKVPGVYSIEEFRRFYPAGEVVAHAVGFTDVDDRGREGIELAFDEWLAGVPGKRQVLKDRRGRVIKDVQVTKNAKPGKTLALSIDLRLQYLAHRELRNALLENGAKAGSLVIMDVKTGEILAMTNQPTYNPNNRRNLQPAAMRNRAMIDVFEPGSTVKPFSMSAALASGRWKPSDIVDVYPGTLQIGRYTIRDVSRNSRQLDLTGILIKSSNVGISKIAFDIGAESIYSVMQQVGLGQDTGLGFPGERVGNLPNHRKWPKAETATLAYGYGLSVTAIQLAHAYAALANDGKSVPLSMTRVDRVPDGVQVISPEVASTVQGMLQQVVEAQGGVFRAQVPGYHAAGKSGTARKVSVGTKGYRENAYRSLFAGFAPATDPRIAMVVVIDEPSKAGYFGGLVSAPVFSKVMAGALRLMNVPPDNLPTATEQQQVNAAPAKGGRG
Text: as §1

E. coli ATCC 25922 = assay: microbe, parasite or virus in culture; assay type: cell-based; settings: Escherichia coli, ATCC25922, read-out: MIC E. coli 25922
E. coli AG100 = assay: microbe, parasite or virus in culture; assay type: cell-based; settings: Escherichia coli, AG100, read-out: MIC E. coli AG100
E. coli 901C = assay: microbe, parasite or virus in culture; assay type: cell-based; settings: Escherichia coli, read-out: MIC E. coli 901C
E. coli D22 = assay: microbe, parasite or virus in culture; assay type: cell-based; settings: Escherichia coli, D22, read-out: MIC E. coli D22
E. coli AG100A = assay: Broth microdilution MIC in CAMHB; assay type: cell-based; settings: Escherichia coli, read-out: MIC E. coli AG100A
K. pneumoniae 848844 = assay: microbe, parasite or virus in culture; assay type: cell-based; settings: Klebsiella pneumoniae, 848844, read-out: MIC K. pneumoniae 848844
K. pneumoniae UMM = assay: microbe, parasite or virus in culture; assay type: cell-based; settings: Klebsiella pneumoniae, read-out: MIC K. pneumoniae UMM
K. pneumoniae SI-117 = assay: microbe, parasite or virus in culture; assay type: cell-based; settings: Klebsiella pneumoniae, SI117, read-out: MIC K. pneumoniae SI-117
P. aeruginosa ATCC 27853 = assay: microbe, parasite or virus in culture; assay type: cell-based; settings: Pseudomonas aeruginosa, ATCC27853, read-out: MIC P. aeruginosa ATCC 27853
A. baumannii ATCC 19606 = assay: microbe, parasite or virus in culture; assay type: cell-based; settings: Acinetobacter baumannii, ATCC19606, read-out: MIC, A. baumannii ATCC 19606
P. aeruginosa ATCC 35151 = assay: microbe, parasite or virus in culture; assay type: cell-based; settings: Pseudomonas aeruginosa, ATCC35151, read-out: MIC P. aeruginosa ATCC 35151
[3] = tested on: P. aeruginosa (ΔmexAB-oprM); assay: Broth microdilution MIC in CAMHB; assay type: cell-based; settings: Pseudomonas aeruginosa; read-out: MIC P. aeruginosa ΔmexAB-oprM
A. baumannii PBP1a = molecular target: T3, A. baumannii PBP1a (Acinetobacter baumannii, UniProt A0ABX6CK30); assay: Bocillin-FL competition binding via gel filtration, A. baumannii PBP1a; settings: competition binding assay using Bocillin-FL via gel filtration; read-out: A. baumannii PBP1a Potency
T3 sequence (A0ABX6CK30 1-851): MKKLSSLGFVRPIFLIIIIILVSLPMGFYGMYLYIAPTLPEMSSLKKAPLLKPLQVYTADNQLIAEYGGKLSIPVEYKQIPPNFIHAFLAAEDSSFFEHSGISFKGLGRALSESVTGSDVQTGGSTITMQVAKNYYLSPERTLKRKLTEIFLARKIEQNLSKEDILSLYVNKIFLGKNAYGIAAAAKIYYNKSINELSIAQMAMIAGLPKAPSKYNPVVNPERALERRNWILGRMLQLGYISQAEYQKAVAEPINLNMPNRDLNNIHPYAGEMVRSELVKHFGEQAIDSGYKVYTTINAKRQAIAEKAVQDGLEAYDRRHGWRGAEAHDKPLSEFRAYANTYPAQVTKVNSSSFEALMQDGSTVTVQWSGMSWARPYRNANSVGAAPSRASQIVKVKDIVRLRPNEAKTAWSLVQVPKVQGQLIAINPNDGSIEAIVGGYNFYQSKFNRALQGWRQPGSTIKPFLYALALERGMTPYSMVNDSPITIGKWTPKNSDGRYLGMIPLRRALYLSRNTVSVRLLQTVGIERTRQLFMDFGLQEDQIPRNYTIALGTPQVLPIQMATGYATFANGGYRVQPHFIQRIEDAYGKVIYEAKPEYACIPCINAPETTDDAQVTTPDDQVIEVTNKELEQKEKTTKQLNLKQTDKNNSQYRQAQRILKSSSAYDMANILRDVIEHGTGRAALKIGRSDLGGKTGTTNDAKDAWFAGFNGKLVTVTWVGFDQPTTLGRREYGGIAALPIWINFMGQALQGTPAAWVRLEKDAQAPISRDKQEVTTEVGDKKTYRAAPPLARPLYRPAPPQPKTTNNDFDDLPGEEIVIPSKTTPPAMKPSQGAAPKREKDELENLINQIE
Description: (§2) Affinity to A. baumannii PBP1a and PBP2 was assessed a competitive equilibrium binding assay using Bocillin-FL as the reporter molecule. Enzyme was pre-incubated with increasing concentrations of inhibitors, prior to addition of Bocillin and further incubation for 15 minutes. PBP bound with Bocillin-FL was separated by gel filtration using 96-well Zeba Spin size exclusion plates, and the fluorescence measured. The inhibitor affinity (reported as the EC50) was determined by plotting the fraction of PBP bound with Bocillin-FL at each inhibitor concentration against the inhibitor concentration, and fitting the data to the following equation:
(§3) [formula] • where y is the fraction bound at a given inhibitor concentration, ymin is the fraction bound when the enzyme is completely inactivated, ymax is the maximum (uninhibited) fraction bound, n is the Hill coefficient, and x is the inhibitor concentration.

A. baumannii PBP2 = A. baumannii PBP2 (Acinetobacter baumannii, UniProt D0C8Z9); assay: Bocillin-FL competition binding via gel filtration, A. baumannii PBP2
Chain of A. baumannii PBP2 (D0C8Z9 whole entry): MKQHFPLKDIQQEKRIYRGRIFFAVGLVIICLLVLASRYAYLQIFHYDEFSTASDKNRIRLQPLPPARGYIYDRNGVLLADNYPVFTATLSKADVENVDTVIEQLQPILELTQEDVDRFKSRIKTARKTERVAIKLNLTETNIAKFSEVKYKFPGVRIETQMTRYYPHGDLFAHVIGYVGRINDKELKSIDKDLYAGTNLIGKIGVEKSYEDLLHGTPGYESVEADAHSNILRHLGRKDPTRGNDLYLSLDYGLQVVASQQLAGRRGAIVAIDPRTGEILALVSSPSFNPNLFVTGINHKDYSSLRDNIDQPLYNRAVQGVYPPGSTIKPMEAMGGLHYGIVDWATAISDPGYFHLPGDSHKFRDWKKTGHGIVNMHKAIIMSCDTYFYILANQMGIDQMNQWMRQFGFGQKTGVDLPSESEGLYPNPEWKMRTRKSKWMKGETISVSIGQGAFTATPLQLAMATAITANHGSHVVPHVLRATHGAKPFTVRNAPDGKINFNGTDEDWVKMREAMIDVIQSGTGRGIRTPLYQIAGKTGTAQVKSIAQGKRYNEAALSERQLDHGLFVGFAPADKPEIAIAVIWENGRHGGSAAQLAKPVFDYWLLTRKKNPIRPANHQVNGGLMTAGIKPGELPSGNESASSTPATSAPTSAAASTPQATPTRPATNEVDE
Description: as §2, §3

B. pseudomallei Bp82 = assay: microbe, parasite or virus in culture; assay type: cell-based; settings: Burkholderia pseudomallei, BP82, read-out: Minimum inhibitory concentration, B. pseudomallei Bp82
[4] = tested on: B. thailandensis ATCC 700388; assay: microbe, parasite or virus in culture; assay type: cell-based; settings: Burkholderia thailandensis, ATCC700388, read-out: Minimum inhibitory concentration (MIC), B. thailandensis ATCC 700388
[5] = tested on: B. humptydooensis ATCC BAA-2767; assay: microbe, parasite or virus in culture; assay type: cell-based; settings: Burkholderia humptydooensis, ATCCBAA2767, read-out: Minimum inhibitory concentration (MIC), B. humptydooensis ATCC BAA-2767
[6] = tested on: N. gonorrhoeae ATCC 49226; assay: Liquid broth MIC in Fastidious broth; settings: Neisseria gonorrhoeae, ATCC49226, read-out: Minimum Inhibitory Concentration, ATCC 49226
N. gonorrhoeae FA1090 = assay: Liquid broth MIC in Fastidious broth; settings: Neisseria gonorrhoeae, FA1090, read-out: Minimum Inhibitory Concentration, FA 1090
N. gonorrhoeae WHO Z = assay: Liquid broth MIC in Fastidious broth; settings: Neisseria gonorrhoeae, read-out: Minimum Inhibitory Concentration, WHO Z

T1 sequence (P0AD68 1-577): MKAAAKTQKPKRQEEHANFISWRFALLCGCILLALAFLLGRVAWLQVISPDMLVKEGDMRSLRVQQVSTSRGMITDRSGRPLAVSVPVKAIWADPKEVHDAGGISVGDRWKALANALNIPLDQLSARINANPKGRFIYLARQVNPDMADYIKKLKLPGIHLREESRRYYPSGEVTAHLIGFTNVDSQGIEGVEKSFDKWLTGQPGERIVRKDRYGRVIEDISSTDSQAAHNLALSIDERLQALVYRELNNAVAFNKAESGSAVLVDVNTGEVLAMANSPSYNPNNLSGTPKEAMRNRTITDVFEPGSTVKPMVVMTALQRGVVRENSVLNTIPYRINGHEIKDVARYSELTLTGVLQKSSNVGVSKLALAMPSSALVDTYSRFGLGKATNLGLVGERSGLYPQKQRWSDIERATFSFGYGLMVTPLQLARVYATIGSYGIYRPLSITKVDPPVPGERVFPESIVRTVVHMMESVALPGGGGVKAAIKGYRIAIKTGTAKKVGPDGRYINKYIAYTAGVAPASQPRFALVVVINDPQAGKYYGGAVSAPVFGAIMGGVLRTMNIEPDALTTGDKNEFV

O=C(N[C@@H](C(=O)N[C@H]1Cc2cccc(C(=O)O)c2OB1O)c1ccc(P(=O)(O)O)cc1)c1cnc2ccnn2c1 (single isomer, unassigned) [Example 187]
EC50 [1]: 10 to 50 µM
IC50 [2]: < 10 µM
MIC (E. coli ATCC 25922): > 128 µg/mL
MIC (E. coli AG100): > 128 µg/mL
MIC (E. coli 901C): 8 to 16 µg/mL (≈ 14.2 to 28.3 µM)
MIC (E. coli D22): 32 to 64 µg/mL (≈ 56.6 to 113 µM)
MIC (E. coli AG100A): > 128 µg/mL
MIC (K. pneumoniae 848844): > 128 µg/mL
MIC (K. pneumoniae UMM): > 128 µg/mL
MIC (K. pneumoniae SI-117): > 128 µg/mL
MIC (P. aeruginosa ATCC 27853): > 128 µg/mL
MIC (A. baumannii ATCC 19606): > 128 µg/mL
MIC (P. aeruginosa ATCC 35151): 2 to 4 µg/mL (≈ 3.54 to 7.08 µM)
MIC [3]: 32 to 64 µg/mL (≈ 56.6 to 113 µM)

O=C(N[C@@H](C(=O)N[C@H]1Cc2cccc(C(=O)O)c2OB1O)c1ccc(P(=O)(O)O)cc1)c1cnc2cccn2c1 (single isomer, unassigned) [Example 499]
EC50 [1]: 10 to 50 µM
IC50 [2]: < 10 µM
MIC (E. coli ATCC 25922): > 128 µg/mL
MIC (E. coli AG100): > 128 µg/mL
MIC (E. coli 901C): 2 to 4 µg/mL (≈ 3.54 to 7.09 µM)
MIC (E. coli D22): 32 to 64 µg/mL (≈ 56.7 to 113 µM)
MIC (E. coli AG100A): 32 to 64 µg/mL (≈ 56.7 to 113 µM)
MIC (K. pneumoniae 848844): > 128 µg/mL
MIC (K. pneumoniae UMM): > 128 µg/mL
MIC (K. pneumoniae SI-117): > 128 µg/mL
MIC (P. aeruginosa ATCC 27853): > 128 µg/mL
MIC (A. baumannii ATCC 19606): > 128 µg/mL
MIC (P. aeruginosa ATCC 35151): 2 to 4 µg/mL (≈ 3.54 to 7.09 µM)
MIC [3]: 32 to 64 µg/mL (≈ 56.7 to 113 µM)

O=C(O)c1c(F)ccc2c1OB(O)[C@@H](NC(=O)C(NC(=O)N1CCN(C3CCN(Cc4ccc(O)cc4)CC3)C1=O)c1cc(F)c(O)c(O)c1Cl)C2 (single isomer, unassigned) [Example 609]
EC50 (A. baumannii PBP1a): < 10 µM
EC50 (A. baumannii PBP2): 10 to 50 µM
MIC (B. pseudomallei Bp82): < 1 µg/mL
MIC [4]: < 1 µg/mL
MIC [5]: < 1 µg/mL

O=C(O)c1c(F)ccc2c1OB(O)[C@@H](NC(=O)C(NC(=O)N1CCN(C3CCN(Cc4ccc(O)c(F)c4)CC3)C1=O)c1cc(F)c(O)c(O)c1Cl)C2 (single isomer, unassigned) [Example 610]
EC50 (A. baumannii PBP1a): < 10 µM
EC50 (A. baumannii PBP2): 10 to 50 µM
MIC (B. pseudomallei Bp82): < 1 µg/mL
MIC [4]: < 1 µg/mL
MIC [5]: < 1 µg/mL

O=C(O)c1c(F)ccc2c1OB(O)[C@@H](NC(=O)C(NC(=O)N1CCN(C3CCN(Cc4cc(O)cc(O)c4)CC3)C1=O)c1cc(F)c(O)c(O)c1Cl)C2 (single isomer, unassigned) [Example 612]
EC50 (A. baumannii PBP1a): < 10 µM
EC50 (A. baumannii PBP2): 10 to 50 µM
MIC (B. pseudomallei Bp82): < 1 µg/mL
MIC [4]: < 1 µg/mL
MIC [5]: < 1 µg/mL

O=C(NC(C(=O)N[C@H]1Cc2cccc(C(=O)O)c2OB1O)c1ccc(P(=O)(O)O)cc1)c1ccc2ccnn2c1 (stereo partly drawn) [Example 498, (3R)-2-hydroxy-3-(2-(4-phosphonophenyl)-2-(pyrazolo[1,5-a]pyridine-6-carboxamido)acetamido)-3,4-dihydro-2H-benzo[e][1,2]oxaborinine-8-carboxylic acid]
EC50 [1]: 50 to 250 µM
IC50 [2]: 10 to 50 µM
MIC (E. coli ATCC 25922): > 128 µg/mL
MIC (E. coli AG100): > 128 µg/mL
MIC (E. coli 901C): 32 to 64 µg/mL (≈ 56.7 to 113 µM)
MIC (E. coli D22): > 128 µg/mL
MIC (E. coli AG100A): > 128 µg/mL
MIC (K. pneumoniae 848844): > 128 µg/mL
MIC (K. pneumoniae UMM): > 128 µg/mL
MIC (K. pneumoniae SI-117): > 128 µg/mL
MIC (P. aeruginosa ATCC 27853): > 128 µg/mL
MIC (A. baumannii ATCC 19606): > 128 µg/mL
MIC (P. aeruginosa ATCC 35151): 8 to 16 µg/mL (≈ 14.2 to 28.4 µM)
MIC [3]: > 128 µg/mL
MIC [6]: > 64 µg/mL
MIC (N. gonorrhoeae FA1090): 4 to 8 µg/mL (≈ 7.09 to 14.2 µM)
MIC (N. gonorrhoeae WHO Z): > 64 µg/mL
